Data taken from ChEMBL document CHEMBL4321873, “Optimization of Orally Bioavailable PI3Kδ Inhibitors and Identification of Vps34 as a Key Selectivity Target” (J Med Chem, 2020).
Values after ≈ are worked out from the molar mass of the structure shown.

Legend:
[1] = Permeability of the compound in pH 7.05 phosphate buffer measured after 3 hrs by artificial membrane permeability assay based LC-MS analysis; type: ADME; details: PAMPA, read-out: permeability
[2] = Clearance in Wistar Han rat at 1 mg/kg, iv by LC-MS/MS analysis; type: ADME, organism-based; details: in vivo
[3] = Clearance in Wistar Han rat at 1 mg/kg, iv by LC-MS/MS analysis relative to hepatic blood flow; type: ADME, organism-based; details: in vivo
[4] = Intrinsic clearance in rat hepatocytes at 0.5 uM measured after 10 mins by LC-MS/MS analysis; type: ADME, cell-based, Hepatocyte
[5] = Intrinsic clearance in human hepatocytes at 0.5 uM measured after 10 mins by LC-MS/MS analysis; type: ADME, cell-based, Hepatocyte
[6] = Kinetic solubility of the compound in pH 7.4 phosphate buffered saline measured after 1 hr by CLND method; type: physicochemical; details: read-out: Kinetic_solubility
[7] = Intrinsic clearance in minipig hepatocytes at 0.5 uM measured after 10 mins by LC-MS/MS analysis; type: ADME, cell-based, Sus scrofa domesticus, Hepatocyte; details: pig
[8] = Volume of distribution at steady state in Wistar Han rat at 1 mg/kg, iv or 1 mg/kg, po by LC-MS/MS analysis; type: ADME, organism-based; details: in vivo, read-out: Vdss
[9] = Half life in Wistar Han rat at 1 mg/kg, iv by LC-MS/MS analysis; type: ADME, organism-based; details: in vivo
[10] = Time at which plasma concentration stays at 10 times Kd(app) for binding affinity to PI3Kdelta in human HL60 cell extract in Wistar Han rat at 10 to 100 mg/kg, po administered twice daily for 7 days; type: ADME, organism-based; details: in vivo, 168 h
[11] = Oral bioavailability in Wistar Han rat at 1 mg/kg by LC-MS/MS analysis; type: ADME, organism-based; details: in vivo
[12] = Time at which plasma concentration stays at 10 times Kd(app) for binding affinity to PI3Kdelta in human HL60 cell extract in Wistar Han rat at 30 to 300 mg/kg, po administered once daily for 7 days; type: ADME, organism-based; details: in vivo, 168 h
[13] = AUC (0 to 24 hrs) in Wistar Han rat at 30 mg/kg, po administered once daily for 7 days by LC-MS/MS analysis; type: ADME, organism-based; set-up: dose 30 mg/kg, time < 24 hr, route oral; details: in vivo
[14] = AUC (infinity) in Wistar Han rat at 1 mg/kg, po by LC-MS/MS analysis; type: ADME, organism-based; set-up: dose 1 mg/kg, time infinity, route oral; details: in vivo
[15] = AUC (0 to 24 hrs) in Wistar Han rat at 100 mg/kg, po administered once daily for 7 days by LC-MS/MS analysis; type: ADME, organism-based; set-up: time < 24 hr, dose 100 mg/kg, route oral; details: in vivo
[16] = AUC (0 to 4 hrs) in Wistar Han rat at 300 mg/kg, po administered once daily for 7 days by LC-MS/MS analysis; type: ADME, organism-based; set-up: dose 300 mg/kg, time < 4 hr, route oral; details: in vivo
[17] = Time at which plasma concentration stays at 10 times Kd(app) for binding affinity to VPS34 in human HL60 cell extract in Wistar Han rat at 100 mg/kg, po administered once daily for 7 days; type: ADME, organism-based; details: in vivo, 168 h
[18] = AUC (0 to 24 hrs) in Wistar Han rat at 100 mg/kg, po administered twice daily for 7 days by LC-MS/MS analysis; type: ADME, organism-based; set-up: dose 100 mg/kg, time < 24 hr, route oral; details: in vivo
[19] = AUC (0 to 24 hrs) in Wistar Han rat at 30 mg/kg, po administered twice daily for 7 days by LC-MS/MS analysis; type: ADME, organism-based; set-up: dose 30 mg/kg, time < 24 hr, route oral; details: in vivo
[20] = AUC (0 to 24 hrs) in Wistar Han rat at 10 mg/kg, po administered twice daily for 7 days by LC-MS/MS analysis; type: ADME, organism-based; set-up: dose 10 mg/kg, time < 24 hr, route oral; details: in vivo

Compound	clearance [2] [mL/min/kg]	CL [3] [%]	Intrinsic clearance (CLint) [4] [mL/min/g]	intrinsic clearance [5] [mL/min/g]	solubility kinetic at 1 h [6] [µg/mL]	CLH [7] [mL/min/g]	Vd [8] [L/kg]	half-life [9] [h]	AUC(0-inf) [14] [ng·h/mL]	other results
COc1ncc(-c2cc3c(c(OCCN4CCC(C(C)(C)O)CC4)c2)COC3)cc1NS(=O)(=O)CC#N										Papp at 3 h [1]: < 0.3 ×10⁻⁶ cm/s
COCCS(=O)(=O)Nc1cc(-c2cc3c(c(OCCN4CCC(C(C)(C)O)CC4)c2)COC3)cnc1OC		28	1.6	< 0.9						Papp at 3 h [1]: < 0.3 ×10⁻⁶ cm/s
COCCS(=O)(=O)Nc1cc(-c2cc3c(c(OCCN4CCC(C(C)(C)O)CC4)c2)CCOC3)cnc1OC	41		< 0.9	< 0.9	≥ 184	< 0.9	6.9	2.7		
COc1ncc(-c2cc(OCCN3CCC(C(C)(C)O)CC3)c3c(c2)[C@@H](C)OC3)cc1NS(C)(=O)=O			9.7	< 0.9						
COCCS(=O)(=O)Nc1cc(-c2cc3c(c(OC[C@H]4CN(C5COC5)CCO4)c2)COC3)cnc1OC	22	28	1.2	< 0.3	≥ 270	0.9	2	3.2	829	AUC at 24 h [18]: 114000 ng·h/mL; Time [10]: 24 h; AUC at 24 h [19]: 37400 ng·h/mL; bioavailability [11]: 84%; AUC at 24 h [20]: 12600 ng·h/mL; Time [12]: 24 h
COc1ncc(-c2cc(OCCN3CCC(C(C)(C)O)CC3)c3c(c2F)COC3)cc1NS(C)(=O)=O			4.5	< 0.9						

The next lines start with results.

clearance [2] [mL/min/kg]	CL [3] [%]	Intrinsic clearance (CLint) [4] [mL/min/g]	intrinsic clearance [5] [mL/min/g]	solubility kinetic at 1 h [6] [µg/mL]	CLH [7] [mL/min/g]	Vd [8] [L/kg]	half-life [9] [h]	AUC(0-inf) [14] [ng·h/mL]	Compound	other results
109									COc1ncc(-c2cc3c(c(OCCN4CCC(C(C)(C)O)CC4)c2)CCOC3)cc1NS(C)(=O)=O	
48	62	2.5	< 0.9	197 (≈ 390 µM)	< 0.9	5.9	2.1	148	COc1ncc(-c2cc3c(c(OCCN4CCC(C(C)(C)O)CC4)c2)COC3)cc1NS(C)(=O)=O	Time [10]: 24 h; bioavailability [11]: 32%; Time [12]: 24 h; AUC at 24 h [13]: 5000 ng·h/mL; AUC at 24 h [15]: 26300 ng·h/mL; AUC at 4 h [16]: 27500 ng·h/mL; Time [17]: 24 h
								673	COc1ncc(-c2cc3c(c(NC(=O)CN4CCOCC4)c2)COC3)cc1NS(C)(=O)=O	
